12 molecules from patent US10206394B2, “Herbicidal compounds” (Syngenta Participations AG, priority 2014, dated 2019) can be followed below.

Common to all, as to test: Glasshouse assay for herbicidal activity (pre- and post-emergence), percentage phytotoxicity
Common to all, as to format: in vivo

The subject of test [1] is Alopecurus myosuroides (ALOMY). The following applies: Alopecurus myosuroides. In short, it runs like this:
(§1)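 Sow seed in standard soil in pots; apply test herbicide after 1 day (PRE) or about 12 days (POST). Grow on in the glasshouse, watering twice daily, cool-season species at 20/16 °C and warm-season at 24/18 °C. Score visible damage (0–100%) at 20 or 15 DAA respectively.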

The subject of test [2] is Avena fatua (AVEFA). The following applies: Avena fatua. In short, it runs like this: as §1
The test system of test [3] is Echinochloa crus-galli (ECHCG). The following applies: Echinochloa crus-galli. In short, it runs like this:
as §1

Test [4] has as its system Lolium perenne (LOLPE). Particulars: Lolium perenne. In short, it runs like this: as §1
[5] abbreviates: post-emergence, 360 h, 250 g/ha, post-emergence, 15 DAA, visual assessment (100%=total damage, 0%=no damage), read-out: Post-emergence herbicidal activity (percentage phytotoxicity) ALOMY POST.
Where [6] appears, read: pre-emergence, 480 h, 250 g/ha, pre-emergence, 20 DAA, visual assessment (100%=total damage, 0%=no damage), read-out: Pre-emergence herbicidal activity (percentage phytotoxicity) ALOMY PRE.
Where [7] appears, read: post-emergence, 360 h, 250 g/ha, post-emergence, 15 DAA, visual assessment (100%=total damage, 0%=no damage), read-out: Post-emergence herbicidal activity (percentage phytotoxicity) AVEFA POST.
Setting [8] is: pre-emergence, 480 h, 250 g/ha, pre-emergence, 20 DAA, visual assessment (100%=total damage, 0%=no damage), read-out: Pre-emergence herbicidal activity (percentage phytotoxicity) AVEFA PRE.
Where [9] appears, read: post-emergence, 360 h, 250 g/ha, post-emergence, 15 DAA, visual assessment (100%=total damage, 0%=no damage), read-out: Post-emergence herbicidal activity (percentage phytotoxicity) ECHCG POST.
The mark [10] stands for this setting: pre-emergence, 480 h, 250 g/ha, pre-emergence, 20 DAA, visual assessment (100%=total damage, 0%=no damage), read-out: Pre-emergence herbicidal activity (percentage phytotoxicity) ECHCG PRE.
Setting [11] is: post-emergence, 360 h, 250 g/ha, post-emergence, 15 DAA, visual assessment (100%=total damage, 0%=no damage), read-out: Post-emergence herbicidal activity (percentage phytotoxicity) LOLPE POST.
[12] abbreviates: pre-emergence, 480 h, 250 g/ha, pre-emergence, 20 DAA, visual assessment (100%=total damage, 0%=no damage), read-out: Pre-emergence herbicidal activity (percentage phytotoxicity) LOLPE PRE.
Setting [13] is: post-emergence, 360 h, POST-emergence, rate 250 g/ha, visual score 15 DAA (100%=total damage, 0%=no damage), read-out: Post-emergence herbicidal activity (percentage phytotoxicity) ALOMY POST.
[14] abbreviates: pre-emergence, 480 h, PRE-emergence, rate 250 g/ha, visual score 20 DAA (100%=total damage, 0%=no damage), read-out: Pre-emergence herbicidal activity (percentage phytotoxicity) ALOMY PRE.
[15] abbreviates: post-emergence, 360 h, POST-emergence, rate 250 g/ha, visual score 15 DAA (100%=total damage, 0%=no damage), read-out: Post-emergence herbicidal activity (percentage phytotoxicity) AVEFA POST.
The mark [16] stands for this setting: pre-emergence, 480 h, PRE-emergence, rate 250 g/ha, visual score 20 DAA (100%=total damage, 0%=no damage), read-out: Pre-emergence herbicidal activity (percentage phytotoxicity) AVEFA PRE.
Where [17] appears, read: post-emergence, 360 h, POST-emergence, rate 250 g/ha, visual score 15 DAA (100%=total damage, 0%=no damage), read-out: Post-emergence herbicidal activity (percentage phytotoxicity) ECHCG POST.
Setting [18] is: pre-emergence, 480 h, PRE-emergence, rate 250 g/ha, visual score 20 DAA (100%=total damage, 0%=no damage), read-out: Pre-emergence herbicidal activity (percentage phytotoxicity) ECHCG PRE.
The mark [19] stands for this setting: post-emergence, 360 h, POST-emergence, rate 250 g/ha, visual score 15 DAA (100%=total damage, 0%=no damage), read-out: Post-emergence herbicidal activity (percentage phytotoxicity) LOLPE POST.
The mark [20] stands for this setting: pre-emergence, 480 h, PRE-emergence, rate 250 g/ha, visual score 20 DAA (100%=total damage, 0%=no damage), read-out: Pre-emergence herbicidal activity (percentage phytotoxicity) LOLPE PRE.
Where [21] appears, read: post-emergence, 360 h, Rate 250 g/ha, post-emergence, assessed visually 15 DAA, 100%=total damage, 0%=no damage, read-out: Post-emergence herbicidal activity (percentage phytotoxicity) ALOMY POST.
[22] abbreviates: pre-emergence, 480 h, Rate 250 g/ha, pre-emergence, assessed visually 20 DAA, 100%=total damage, 0%=no damage, read-out: Pre-emergence herbicidal activity (percentage phytotoxicity) ALOMY PRE.
The mark [23] stands for this setting: post-emergence, 360 h, Rate 250 g/ha, post-emergence, assessed visually 15 DAA, 100%=total damage, 0%=no damage, read-out: Post-emergence herbicidal activity (percentage phytotoxicity) AVEFA POST.
Setting [24] is: pre-emergence, 480 h, Rate 250 g/ha, pre-emergence, assessed visually 20 DAA, 100%=total damage, 0%=no damage, read-out: Pre-emergence herbicidal activity (percentage phytotoxicity) AVEFA PRE.
[25] abbreviates: post-emergence, 360 h, Rate 250 g/ha, post-emergence, assessed visually 15 DAA, 100%=total damage, 0%=no damage, read-out: Post-emergence herbicidal activity (percentage phytotoxicity) ECHCG POST.
[26] abbreviates: pre-emergence, 480 h, Rate 250 g/ha, pre-emergence, assessed visually 20 DAA, 100%=total damage, 0%=no damage, read-out: Pre-emergence herbicidal activity (percentage phytotoxicity) ECHCG PRE.
[27] abbreviates: post-emergence, 360 h, Rate 250 g/ha, post-emergence, assessed visually 15 DAA, 100%=total damage, 0%=no damage, read-out: Post-emergence herbicidal activity (percentage phytotoxicity) LOLPE POST.
Where [28] appears, read: pre-emergence, 480 h, Rate 250 g/ha, pre-emergence, assessed visually 20 DAA, 100%=total damage, 0%=no damage, read-out: Pre-emergence herbicidal activity (percentage phytotoxicity) LOLPE PRE.

Read-outs that look alike come from different tables or passages of the source.

Consider `Cc1cc(-c2ncc(Cl)cc2F)cc(C)c1C1C(=O)CC(CC(=O)NC2CCCC2)C1=O` (stereo not drawn) [Compound B125], for which the pest or weed control at 250 g/ha turned out to be 90% in test [1] (setting [5]); 80% in test [1] (setting [6]); 100% in test [2] (setting [7]); 40% in test [2] (setting [8]); 100% in test [3] (setting [9]); 100% in test [3] (setting [10]). Moreover, the pest or weed control at 250 g/ha in test [4] (setting [11]) and in test [4] (setting [12]) was 100% in each case.
On to `Cc1cc(-c2ncccc2F)cc(C)c1C1C(=O)CC(CC(=O)NC(C)(C)C)C1=O` (stereo not drawn) [Compound B84], for which the pest or weed control at 250 g/ha in test [1] (setting [5]) worked out at 100%; in test [1] (setting [6]) it was 90%; in test [2] (setting [7]) it was 100%; in test [2] (setting [8]), 80%; in test [3] (setting [9]), 100%; in test [3] (setting [10]), 100%. Moreover, the pest or weed control at 250 g/ha in test [4] (setting [11]) and in test [4] (setting [12]) was 100% throughout.
Consider `C#CCN(CC#C)C(=O)CC1CC(=O)C(c2c(C)cc(C)cc2C)C1=O` (stereo not drawn) [Compound B45], for which the pest or weed control at 250 g/ha in test [1] (setting [5]) amounted to 80%; in test [1] (setting [6]), 70%; in test [2] (setting [7]), 80%; in test [2] (setting [8]) it was 10%; in test [3] (setting [9]), 80%; in test [3] (setting [10]), 60%. Besides, the pest or weed control at 250 g/ha in test [4] (setting [11]) and in test [4] (setting [12]) was 80% each time.
`Cc1cc(-c2ncc(F)cn2)cc(C)c1C1C(=O)CC(CC(=O)N(C)Cc2cccc(F)c2)C1=O` (stereo not drawn) [Compound B273]: the pest or weed control at 250 g/ha in test [1] (setting [13]) came out at 100%; in test [1] (setting [14]) it was 90%; in test [2] (setting [15]), 100%; in test [2] (setting [16]), 90%; in test [3] (setting [17]), 100%; in test [3] (setting [18]) it was 100%. The pest or weed control at 250 g/ha in test [4] (setting [19]) and in test [4] (setting [20]) was 100% throughout.
Consider `Cc1cc(OCC(F)(F)F)cc(C)c1C1C(=O)CC(CC(=O)NCc2cccc(F)c2)C1=O` (stereo not drawn) [Compound B205], for which the pest or weed control at 250 g/ha in test [1] (setting [13]) was found to be 100%; in test [1] (setting [14]) it was 100%; in test [2] (setting [15]) it was 90%; in test [2] (setting [16]), 80%; in test [3] (setting [17]), 90%; in test [3] (setting [18]), 90%. Moreover, the pest or weed control at 250 g/ha in test [4] (setting [19]) and in test [4] (setting [20]) was 90% throughout.
Turning to `Cc1cc(Br)cc(C)c1C1C(=O)CC(CC(=O)NCC2CC2(Cl)Cl)C1=O` (stereo not drawn) [Compound B141], the pest or weed control at 250 g/ha in test [1] (setting [5]) was determined as 80%; in test [1] (setting [6]), 90%; in test [2] (setting [7]) it was 90%; in test [2] (setting [8]) it was 60%; in test [3] (setting [9]) it was 80%; in test [3] (setting [10]), 70%. The pest or weed control at 250 g/ha in test [4] (setting [11]) and in test [4] (setting [12]) was 80% throughout.
Regarding `Cc1cc(C)c(C2C(=O)CC(CC(=O)NCC(F)F)C2=O)c(C)c1` (stereo not drawn) [Compound B57], the pest or weed control at 250 g/ha in test [1] (setting [5]) is 70%; in test [1] (setting [6]), 70%; in test [2] (setting [7]), 80%; in test [2] (setting [8]) it was 20%; in test [3] (setting [9]), 80%; in test [3] (setting [10]) it was 90%. The pest or weed control at 250 g/ha in test [4] (setting [11]) and in test [4] (setting [12]) was 80% in each case.
Turning to `CC#Cc1cc(C)c(C2C(=O)CC(CC(=O)NC3CCCC3)C2=O)c(CC)c1` (stereo not drawn) [Compound A52], the pest or weed control at 250 g/ha was found to be 100% in test [1] (setting [21]); 100% in test [1] (setting [22]); 100% in test [2] (setting [23]); 90% in test [2] (setting [24]); 100% in test [3] (setting [25]); 90% in test [3] (setting [26]). Besides, the pest or weed control at 250 g/ha in test [4] (setting [27]) and in test [4] (setting [28]) was 90% throughout.
As to `C=C(C)CNC(=O)CC1CC(=O)C(c2c(C)cccc2CC)C1=O` (stereo not drawn) [Compound B152], the pest or weed control at 250 g/ha came to 100% in test [1] (setting [5]); 100% in test [1] (setting [6]); 90% in test [2] (setting [7]); 50% in test [2] (setting [8]); 100% in test [3] (setting [9]); 100% in test [3] (setting [10]). The pest or weed control at 250 g/ha was 90% in test [4] (setting [11]) and 100% in test [4] (setting [12]).
Turning to `Cc1cc(C)c(C2C(=O)CC(CC(=O)NC(C)C(F)(F)F)C2=O)c(C)c1` (stereo not drawn) [Compound B63], the pest or weed control at 250 g/ha in test [1] (setting [5]) is 70%; in test [1] (setting [6]), 80%; in test [2] (setting [7]), 70%; in test [2] (setting [8]) it was 50%; in test [3] (setting [9]) it was 70%; in test [3] (setting [10]) it was 80%. Also, the pest or weed control at 250 g/ha came to 70% in test [4] (setting [11]) and 80% in test [4] (setting [12]).
As to `CC#Cc1cc(C)c(C2C(=O)CC(CC(=O)NCCC(F)(F)F)C2=O)c(C)c1` (stereo not drawn) [Compound A58], the pest or weed control at 250 g/ha in test [1] (setting [21]), in test [1] (setting [22]), in test [2] (setting [23]), in test [2] (setting [24]), in test [3] (setting [25]) and in test [3] (setting [26]) was 100% throughout. In addition, the pest or weed control at 250 g/ha in test [4] (setting [27]) and in test [4] (setting [28]) was 90% each time.
Turning to `Cc1cc(-c2ccc(C#N)cc2F)cc(C)c1C1C(=O)CC(CC(=O)NC(C)C)C1=O` (stereo not drawn) [Compound A38], the pest or weed control at 250 g/ha in test [1] (setting [21]) came out at 80%; in test [1] (setting [22]), 80%; in test [2] (setting [23]), 100%; in test [2] (setting [24]), 90%; in test [3] (setting [25]) it was 90%; in test [3] (setting [26]) it was 100%. The pest or weed control at 250 g/ha was 80% in test [4] (setting [27]) and 90% in test [4] (setting [28]).
